Drawing on PubChem BioAssay (NCI), this text covers TGI for 5 molecules.

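These data come from cells grown in 96-well plates and exposed to compound for 48 hours at five concentrations. TGI marks complete inhibition of growth.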

Some test systems named below: COLO 205 colon; HOP-62 NSCLC; HOP-92 NSCLC; IGROV1 ovarian; MALME-3M melanoma; MDA-MB-435; NCI/ADR-RES ovarian; RXF 393 renal; SNB-75 CNS; SR leukemia.
Assay in all cases: inhibition of tumour cell growth, NCI panel, 48 h

Take `Cc1ccc(/C=C2\Cc3c(C)cc(C)cc3C2=O)c(C(=O)O)c1`: the TGI was 98.2 µM with COLO 205 colon; more than 100 µM with HOP-62 NSCLC; more than 100 µM in the assay on HOP-92 NSCLC; more than 100 µM in the assay with IGROV1 ovarian; more than 100 µM in the assay on MALME-3M melanoma; 88.1 µM in the assay with MDA-MB-435. Moreover, the TGI with NCI/ADR-RES ovarian is more than 100 µM; in the assay on RXF 393 renal, 88.6 µM; with SNB-75 CNS, more than 100 µM; with SR leukemia it was 68.7 µM.
`C#CCN(Cc1ccc2nc(OC)c(OC)nc2c1)c1cc(OC)c(OC)c(OC)c1`: the TGI with COLO 205 colon was 41.5 µM; in the assay on HOP-62 NSCLC, more than 67.9 µM; with HOP-92 NSCLC it was 62.6 µM; with IGROV1 ovarian it was more than 69.6 µM; in the assay on MALME-3M melanoma, 83.8 µM; in the assay on MDA-MB-435, 74.7 µM. For the same molecule, the TGI in the assay with NCI/ADR-RES ovarian was 53.7 µM; in the assay on RXF 393 renal, more than 75.1 µM; in the assay with SNB-75 CNS, more than 100 µM; in the assay with SR leukemia, more than 61.7 µM.
Turning to `COc1cc2c(cc1Cc1c(F)cccc1Cl)nc(-c1c(F)cccc1Cl)n2Cc1c(F)cccc1Cl`, the TGI in the assay on COLO 205 colon is more than 100 µM; in the assay with HOP-62 NSCLC, 75.7 µM; in the assay on HOP-92 NSCLC it was 37.6 µM; in the assay on IGROV1 ovarian, more than 100 µM; in the assay on MALME-3M melanoma it was 79.9 µM; in the assay on MDA-MB-435, more than 100 µM. In addition, the TGI is more than 100 µM in the assay on NCI/ADR-RES ovarian, more than 100 µM in the assay on RXF 393 renal, 70.4 µM in the assay on SNB-75 CNS and more than 100 µM in the assay on SR leukemia.
Turning to `O=C(Nc1noc(-c2ccccc2)n1)c1ccccc1CNc1noc(-c2ccccc2)n1`, the TGI in the assay with COLO 205 colon, in the assay on HOP-62 NSCLC, in the assay on HOP-92 NSCLC, with IGROV1 ovarian, with MALME-3M melanoma and with MDA-MB-435 was more than 100 µM each time. The TGI with NCI/ADR-RES ovarian, in the assay on RXF 393 renal, with SNB-75 CNS and in the assay with SR leukemia was more than 100 µM in each case.
Regarding `C[C@H]1SC(c2ccc(Cl)cc2Cl)N(NC(=O)c2ccncc2)C1=O` (stereo not given in full), the TGI in the assay with COLO 205 colon is more than 100 µM; in the assay with HOP-62 NSCLC, 94.3 µM; in the assay with HOP-92 NSCLC it was more than 100 µM; in the assay with IGROV1 ovarian, more than 100 µM; with MALME-3M melanoma it was more than 100 µM; with MDA-MB-435, 75.3 µM. Further, the TGI in the assay on NCI/ADR-RES ovarian was more than 100 µM; with RXF 393 renal, 61.2 µM; with SNB-75 CNS, more than 100 µM; with SR leukemia it was more than 100 µM.
